Data on ten molecules can be found in ChEMBL document CHEMBL3991601, “The target landscape of clinical kinase drugs” (Science, 2017).

Assay [1] concerns the target T1, MAP kinase-activated protein kinase 5 (Homo sapiens, UniProt Q8IW41).
T1 sequence (Q8IW41 whole entry): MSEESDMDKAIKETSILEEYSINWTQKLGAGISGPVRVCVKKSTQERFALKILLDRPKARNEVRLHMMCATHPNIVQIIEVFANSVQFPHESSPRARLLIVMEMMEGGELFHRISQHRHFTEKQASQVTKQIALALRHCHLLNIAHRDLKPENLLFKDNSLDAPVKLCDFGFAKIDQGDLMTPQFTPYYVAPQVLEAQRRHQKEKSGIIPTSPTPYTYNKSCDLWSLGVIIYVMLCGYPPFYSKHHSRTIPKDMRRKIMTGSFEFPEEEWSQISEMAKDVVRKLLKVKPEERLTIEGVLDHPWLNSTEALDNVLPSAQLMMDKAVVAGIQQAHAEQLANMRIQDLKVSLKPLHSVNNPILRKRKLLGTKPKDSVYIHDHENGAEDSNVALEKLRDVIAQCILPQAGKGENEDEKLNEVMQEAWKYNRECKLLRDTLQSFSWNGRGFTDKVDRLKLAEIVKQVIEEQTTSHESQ

Assay [2] concerns the target T2, Serine/threonine-protein kinase Nek9 (Homo sapiens, UniProt Q8TD19).
T2 sequence (Q8TD19 whole entry): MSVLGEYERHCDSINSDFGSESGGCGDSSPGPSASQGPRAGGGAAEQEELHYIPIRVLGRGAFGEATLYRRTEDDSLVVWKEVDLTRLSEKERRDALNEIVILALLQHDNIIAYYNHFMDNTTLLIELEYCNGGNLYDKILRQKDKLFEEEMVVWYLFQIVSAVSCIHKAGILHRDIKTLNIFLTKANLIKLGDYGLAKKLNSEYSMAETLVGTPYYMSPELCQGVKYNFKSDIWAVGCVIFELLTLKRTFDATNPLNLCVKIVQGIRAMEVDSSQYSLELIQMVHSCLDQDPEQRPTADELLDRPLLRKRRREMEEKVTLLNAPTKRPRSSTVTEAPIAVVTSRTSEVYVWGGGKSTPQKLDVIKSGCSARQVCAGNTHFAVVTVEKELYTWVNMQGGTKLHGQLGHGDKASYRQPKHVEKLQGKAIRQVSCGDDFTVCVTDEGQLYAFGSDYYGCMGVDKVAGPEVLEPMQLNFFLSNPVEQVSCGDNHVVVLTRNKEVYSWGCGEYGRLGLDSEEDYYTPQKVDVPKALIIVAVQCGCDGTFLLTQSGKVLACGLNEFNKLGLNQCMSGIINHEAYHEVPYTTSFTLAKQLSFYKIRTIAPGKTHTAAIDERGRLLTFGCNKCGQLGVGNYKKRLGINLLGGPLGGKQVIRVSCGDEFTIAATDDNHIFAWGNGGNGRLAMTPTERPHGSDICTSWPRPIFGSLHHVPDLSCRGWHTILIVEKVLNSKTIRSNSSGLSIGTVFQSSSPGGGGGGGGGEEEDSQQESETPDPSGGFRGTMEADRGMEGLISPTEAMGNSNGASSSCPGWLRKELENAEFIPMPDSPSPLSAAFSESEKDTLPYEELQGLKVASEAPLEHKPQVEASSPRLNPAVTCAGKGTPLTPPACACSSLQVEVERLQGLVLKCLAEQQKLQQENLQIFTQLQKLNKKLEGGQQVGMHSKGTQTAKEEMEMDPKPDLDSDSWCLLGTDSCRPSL

Assay [3] concerns the target Serine/threonine-protein kinase PAK 2 (Homo sapiens, UniProt Q13177).
For the next assay, the target named is DNA topoisomerase 2-beta (Homo sapiens, UniProt Q02880).
Sequence of DNA topoisomerase 2-beta (Q02880 whole entry): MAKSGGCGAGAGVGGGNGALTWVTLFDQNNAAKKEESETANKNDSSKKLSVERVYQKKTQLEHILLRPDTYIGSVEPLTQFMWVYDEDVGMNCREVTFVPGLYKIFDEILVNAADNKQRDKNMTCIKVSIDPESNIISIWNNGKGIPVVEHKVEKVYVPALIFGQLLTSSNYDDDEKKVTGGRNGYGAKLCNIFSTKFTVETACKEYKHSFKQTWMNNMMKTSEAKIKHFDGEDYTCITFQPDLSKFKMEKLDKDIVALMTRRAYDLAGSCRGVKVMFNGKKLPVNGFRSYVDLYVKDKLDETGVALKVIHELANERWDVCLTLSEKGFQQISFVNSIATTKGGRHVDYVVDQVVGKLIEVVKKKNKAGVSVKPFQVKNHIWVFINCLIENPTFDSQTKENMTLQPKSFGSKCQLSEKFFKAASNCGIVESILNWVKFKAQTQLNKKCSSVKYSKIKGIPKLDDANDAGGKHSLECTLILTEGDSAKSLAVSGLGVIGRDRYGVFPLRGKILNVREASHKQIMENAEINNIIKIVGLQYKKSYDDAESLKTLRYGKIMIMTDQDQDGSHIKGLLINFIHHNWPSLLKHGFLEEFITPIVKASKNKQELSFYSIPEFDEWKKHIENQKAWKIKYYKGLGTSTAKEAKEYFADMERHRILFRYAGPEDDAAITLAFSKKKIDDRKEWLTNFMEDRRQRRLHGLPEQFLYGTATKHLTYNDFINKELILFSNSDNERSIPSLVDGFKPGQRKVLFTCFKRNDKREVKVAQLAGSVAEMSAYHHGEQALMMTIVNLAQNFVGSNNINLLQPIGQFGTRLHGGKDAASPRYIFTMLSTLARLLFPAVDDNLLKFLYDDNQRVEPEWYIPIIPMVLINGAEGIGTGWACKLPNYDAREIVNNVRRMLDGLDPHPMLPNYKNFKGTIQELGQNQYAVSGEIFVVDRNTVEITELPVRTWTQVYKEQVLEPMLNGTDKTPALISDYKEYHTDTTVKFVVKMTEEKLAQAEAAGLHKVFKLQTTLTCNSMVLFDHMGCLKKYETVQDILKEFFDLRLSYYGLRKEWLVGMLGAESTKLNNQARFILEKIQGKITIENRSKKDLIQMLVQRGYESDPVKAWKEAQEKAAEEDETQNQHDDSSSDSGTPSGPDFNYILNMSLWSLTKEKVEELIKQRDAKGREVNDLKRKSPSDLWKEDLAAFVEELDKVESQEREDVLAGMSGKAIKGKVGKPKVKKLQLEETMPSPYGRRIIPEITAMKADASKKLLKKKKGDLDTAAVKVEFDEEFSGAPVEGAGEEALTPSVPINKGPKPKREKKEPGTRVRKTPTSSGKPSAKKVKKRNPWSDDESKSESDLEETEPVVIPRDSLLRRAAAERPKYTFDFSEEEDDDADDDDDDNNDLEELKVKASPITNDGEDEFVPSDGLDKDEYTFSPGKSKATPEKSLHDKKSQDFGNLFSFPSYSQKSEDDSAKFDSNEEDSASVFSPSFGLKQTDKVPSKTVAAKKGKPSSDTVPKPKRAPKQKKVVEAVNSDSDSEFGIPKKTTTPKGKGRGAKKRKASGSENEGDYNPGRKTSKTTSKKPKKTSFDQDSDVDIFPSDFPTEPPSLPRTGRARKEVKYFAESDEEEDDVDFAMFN
Assay [4] has as its target T3, ATP-dependent RNA helicase DDX1 (Homo sapiens, UniProt Q92499).
T3 sequence (Q92499 whole entry): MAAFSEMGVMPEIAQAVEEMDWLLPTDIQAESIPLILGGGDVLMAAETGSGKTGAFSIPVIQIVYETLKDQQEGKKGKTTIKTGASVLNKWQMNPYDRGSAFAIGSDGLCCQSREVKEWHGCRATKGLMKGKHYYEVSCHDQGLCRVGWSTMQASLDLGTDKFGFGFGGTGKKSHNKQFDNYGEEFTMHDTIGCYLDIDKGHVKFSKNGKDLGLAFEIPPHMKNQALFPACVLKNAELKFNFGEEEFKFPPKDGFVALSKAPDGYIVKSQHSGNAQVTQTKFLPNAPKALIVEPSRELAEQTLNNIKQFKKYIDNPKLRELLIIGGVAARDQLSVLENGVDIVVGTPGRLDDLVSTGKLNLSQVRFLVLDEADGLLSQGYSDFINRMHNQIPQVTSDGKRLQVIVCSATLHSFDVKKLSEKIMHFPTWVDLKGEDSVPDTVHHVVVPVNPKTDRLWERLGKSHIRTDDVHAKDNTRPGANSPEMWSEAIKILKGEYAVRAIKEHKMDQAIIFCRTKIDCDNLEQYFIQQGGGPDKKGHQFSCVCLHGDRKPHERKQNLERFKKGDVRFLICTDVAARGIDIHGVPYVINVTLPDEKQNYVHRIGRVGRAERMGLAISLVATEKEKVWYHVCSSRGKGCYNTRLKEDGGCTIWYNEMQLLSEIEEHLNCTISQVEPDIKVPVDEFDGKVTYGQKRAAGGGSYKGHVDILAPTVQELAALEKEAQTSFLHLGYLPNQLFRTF

Assay [5] deals with T4, Delta(24)-sterol reductase (Homo sapiens, UniProt Q15392).
T4 sequence (Q15392 whole entry): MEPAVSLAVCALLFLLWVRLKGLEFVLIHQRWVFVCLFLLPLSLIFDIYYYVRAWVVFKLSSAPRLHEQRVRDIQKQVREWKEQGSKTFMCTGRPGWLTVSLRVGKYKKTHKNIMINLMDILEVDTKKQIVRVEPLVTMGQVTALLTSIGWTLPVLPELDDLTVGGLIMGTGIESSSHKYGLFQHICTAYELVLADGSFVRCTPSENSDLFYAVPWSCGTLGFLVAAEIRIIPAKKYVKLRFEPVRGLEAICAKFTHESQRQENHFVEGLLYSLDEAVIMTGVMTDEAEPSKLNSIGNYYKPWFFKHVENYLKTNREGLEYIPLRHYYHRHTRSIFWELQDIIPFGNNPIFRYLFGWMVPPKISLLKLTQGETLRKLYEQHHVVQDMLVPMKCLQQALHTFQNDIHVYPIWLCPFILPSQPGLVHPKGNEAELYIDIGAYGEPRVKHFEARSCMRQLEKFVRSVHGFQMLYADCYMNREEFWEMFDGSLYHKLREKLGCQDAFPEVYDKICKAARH

Assay [6] has as its target Serine/threonine-protein kinase/endoribonuclease IRE2 (Homo sapiens, UniProt Q76MJ5).
Assay [7] has as its target Tyrosine-protein kinase SYK (Homo sapiens, UniProt P43405).
A further assay deals with Activated CDC42 kinase 1 (Homo sapiens, UniProt Q07912).
Sequence of Activated CDC42 kinase 1 (Q07912 whole entry): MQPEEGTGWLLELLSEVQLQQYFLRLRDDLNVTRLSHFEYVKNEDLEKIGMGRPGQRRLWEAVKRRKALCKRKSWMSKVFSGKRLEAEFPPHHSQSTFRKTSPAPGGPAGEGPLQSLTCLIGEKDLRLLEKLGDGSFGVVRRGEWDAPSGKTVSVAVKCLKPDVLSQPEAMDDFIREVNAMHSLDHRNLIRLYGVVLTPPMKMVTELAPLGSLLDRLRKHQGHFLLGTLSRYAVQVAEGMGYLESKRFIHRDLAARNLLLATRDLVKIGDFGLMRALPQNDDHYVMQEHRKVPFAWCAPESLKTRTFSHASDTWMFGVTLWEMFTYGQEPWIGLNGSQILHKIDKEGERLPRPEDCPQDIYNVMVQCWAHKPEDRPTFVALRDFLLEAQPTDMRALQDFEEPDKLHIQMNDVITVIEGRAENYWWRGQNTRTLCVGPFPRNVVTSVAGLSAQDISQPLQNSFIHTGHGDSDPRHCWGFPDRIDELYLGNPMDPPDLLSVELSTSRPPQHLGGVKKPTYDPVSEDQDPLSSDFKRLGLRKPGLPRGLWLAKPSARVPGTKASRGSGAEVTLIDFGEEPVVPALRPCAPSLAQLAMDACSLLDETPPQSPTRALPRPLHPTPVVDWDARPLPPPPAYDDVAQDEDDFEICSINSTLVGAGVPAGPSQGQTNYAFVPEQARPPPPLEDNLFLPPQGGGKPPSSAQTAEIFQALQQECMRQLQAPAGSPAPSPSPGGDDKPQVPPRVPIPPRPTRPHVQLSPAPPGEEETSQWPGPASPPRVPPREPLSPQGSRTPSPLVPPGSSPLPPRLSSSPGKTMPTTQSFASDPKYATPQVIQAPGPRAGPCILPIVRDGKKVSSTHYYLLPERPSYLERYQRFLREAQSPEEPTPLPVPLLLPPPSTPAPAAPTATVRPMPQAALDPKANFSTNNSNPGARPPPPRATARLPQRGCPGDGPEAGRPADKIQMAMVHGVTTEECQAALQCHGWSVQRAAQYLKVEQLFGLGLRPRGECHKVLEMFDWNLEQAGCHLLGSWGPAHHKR

The structures appear in SMILES notation. Activity calls are given as the source filed them.
Note: in the data inactive means no Kd found up to 30 µM.

Sequence of Serine/threonine-protein kinase/endoribonuclease IRE2 (Q76MJ5 whole entry): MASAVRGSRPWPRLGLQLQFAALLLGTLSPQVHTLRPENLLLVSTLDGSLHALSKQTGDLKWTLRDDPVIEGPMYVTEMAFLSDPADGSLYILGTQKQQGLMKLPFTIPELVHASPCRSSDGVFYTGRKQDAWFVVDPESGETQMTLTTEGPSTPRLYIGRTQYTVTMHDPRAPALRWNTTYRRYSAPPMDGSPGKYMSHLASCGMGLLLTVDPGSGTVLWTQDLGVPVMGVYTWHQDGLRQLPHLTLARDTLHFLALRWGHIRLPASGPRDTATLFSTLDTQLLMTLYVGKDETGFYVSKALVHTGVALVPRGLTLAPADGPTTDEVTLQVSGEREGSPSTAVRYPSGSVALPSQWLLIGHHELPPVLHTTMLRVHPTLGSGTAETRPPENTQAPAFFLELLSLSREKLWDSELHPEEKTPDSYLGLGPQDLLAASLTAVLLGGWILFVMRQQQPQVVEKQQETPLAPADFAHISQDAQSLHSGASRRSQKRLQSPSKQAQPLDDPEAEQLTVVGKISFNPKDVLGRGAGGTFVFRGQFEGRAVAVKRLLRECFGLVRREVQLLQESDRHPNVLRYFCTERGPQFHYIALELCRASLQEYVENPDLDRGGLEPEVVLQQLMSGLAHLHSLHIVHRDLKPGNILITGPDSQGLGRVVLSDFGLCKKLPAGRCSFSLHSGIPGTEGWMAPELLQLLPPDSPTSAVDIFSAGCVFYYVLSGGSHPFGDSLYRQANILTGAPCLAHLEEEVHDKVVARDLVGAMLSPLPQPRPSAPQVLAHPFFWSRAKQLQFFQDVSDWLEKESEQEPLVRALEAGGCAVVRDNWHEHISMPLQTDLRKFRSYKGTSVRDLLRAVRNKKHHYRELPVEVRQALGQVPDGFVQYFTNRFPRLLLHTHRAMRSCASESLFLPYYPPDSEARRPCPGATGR
Sequence of Serine/threonine-protein kinase PAK 2 (Q13177 whole entry): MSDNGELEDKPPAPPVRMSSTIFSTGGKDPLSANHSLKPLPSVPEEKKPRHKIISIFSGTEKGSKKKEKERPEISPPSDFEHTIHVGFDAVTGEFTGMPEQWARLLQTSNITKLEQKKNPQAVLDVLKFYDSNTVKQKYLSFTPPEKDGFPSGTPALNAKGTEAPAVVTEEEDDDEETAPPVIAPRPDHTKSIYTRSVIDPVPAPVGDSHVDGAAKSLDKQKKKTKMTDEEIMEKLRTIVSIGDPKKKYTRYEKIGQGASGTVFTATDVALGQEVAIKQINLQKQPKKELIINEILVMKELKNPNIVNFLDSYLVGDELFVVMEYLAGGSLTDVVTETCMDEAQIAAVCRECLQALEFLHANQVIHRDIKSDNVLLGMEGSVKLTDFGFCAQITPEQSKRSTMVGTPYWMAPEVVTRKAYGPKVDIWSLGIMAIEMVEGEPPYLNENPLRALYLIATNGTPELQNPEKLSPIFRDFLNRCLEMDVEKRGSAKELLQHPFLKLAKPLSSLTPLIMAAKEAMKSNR

Turning to `CNC(=O)c1cc(Oc2ccc(NC(=O)Nc3ccc(Cl)c(C(F)(F)F)c3)c(F)c2)ccn1` [REGORAFENIB], the Kd (in assay [1]; in assay [2]; in [3]; on DNA topoisomerase 2-beta; in assay [4]; in [5]) was > 30 µM (inactive) in each case. Besides, the Kd (in assay [6]; in [7]; on Activated CDC42 kinase 1) was > 30 µM (inactive) in each case.

`Cc1ccc(-n2nc(C(C)(C)C)cc2NC(=O)NCc2cc(F)ccc2Oc2ccc3c(cnn3CCO)c2)cc1` [PEXMETINIB]: the Kd (in assay [1]; in assay [2]; in assay [3]; on DNA topoisomerase 2-beta; in assay [4]; in [5]) was > 30 µM (inactive) throughout. The Kd (in assay [6]; in assay [7]; on Activated CDC42 kinase 1) was > 30 µM (inactive) each time.

`CCN1CCN(Cc2ccc(-c3cc4c(N[C@H](C)c5ccccc5)ncnc4[nH]3)cc2)CC1` [AEE-788]: the Kd (in [1]; in [2]; in assay [3]; at DNA topoisomerase 2-beta; in assay [4]; in assay [5]) was > 30 µM (inactive) throughout. Also, the Kd – broadly, the free concentration of one partner at which half of the binding sites on the other are occupied at equilibrium, for simple one-to-one binding – in assay [6] is > 30 µM (inactive); in [7] it was > 30 µM (inactive); on Activated CDC42 kinase 1, 1.01 µM (active).

For `Cc1ccc(NC(=O)c2ccc(CN3CC[C@H](N(C)C)C3)c(C(F)(F)F)c2)cc1Nc1nccc(-c2cncnc2)n1` [BAFETINIB], the Kd (in [1]; in [2]; in assay [3]; at DNA topoisomerase 2-beta; in assay [4]; in assay [5]) was > 30 µM (inactive) throughout. Moreover, the Kd (in [6]; in assay [7]; on Activated CDC42 kinase 1) was > 30 µM (inactive) in each case.

Consider `Cn1cc(-c2ccc3nnc(C(F)(F)c4ccc5ncccc5c4)n3n2)cn1` [JNJ-38877605], for which the Kd (in assay [1]; in assay [2]; in assay [3]; at DNA topoisomerase 2-beta; in assay [4]; in [5]) was > 30 µM (inactive) throughout. The Kd (in [6]; in assay [7]; on Activated CDC42 kinase 1) was > 30 µM (inactive) in each case.

In the case of `CC[C@H](Nc1ncnc2[nH]cnc12)c1nc2cccc(F)c2c(=O)n1-c1ccccc1` [IDELALISIB], the Kd (in assay [1]; in assay [2]; in assay [3]; at DNA topoisomerase 2-beta; in assay [4]; in [5]) was > 30 µM (inactive) throughout. Also, the Kd (in assay [6]; in [7]; at Activated CDC42 kinase 1) was > 30 µM (inactive) throughout.

With `CN1CC[C@@H](c2c(O)cc(O)c3c(=O)cc(-c4ccccc4Cl)oc23)[C@@H]1CO`, the Kd (in assay [1]; in [2]; in assay [3]; on DNA topoisomerase 2-beta; in [4]; in assay [5]) was > 30 µM (inactive) in each case. Besides, the Kd (in [6]; in assay [7]; on Activated CDC42 kinase 1) was > 30 µM (inactive) each time.

Turning to `CN1N=C(N)c2cn([C@@H]3O[C@H](COP(=O)(O)O)[C@@H](O)[C@H]3O)c3ncnc1c23` [TRICIRIBINE PHOSPHATE], the Kd (in [1]; in [2]; in assay [3]; on DNA topoisomerase 2-beta; in [4]; in assay [5]) was > 30 µM (inactive) in each case. Besides, the Kd (in [6]; in [7]; on Activated CDC42 kinase 1) was > 30 µM (inactive) in each case.

Turning to `O=C(c1ccc(F)c(F)c1Nc1ccc(I)cc1F)N1CC(O)([C@@H]2CCCCN2)C1` [COBIMETINIB], the Kd (in [1]; in assay [2]; in assay [3]; at DNA topoisomerase 2-beta; in assay [4]; in [5]) was > 30 µM (inactive) throughout. In addition, the Kd (in [6]; in [7]; on Activated CDC42 kinase 1) was > 30 µM (inactive) in each case.

Turning to `Cc1cc(-c2cc(O)ccc2Cl)cc2nnc(Nc3ccc(OCCN4CCCC4)cc3)nc12`, the Kd (in assay [1]; in [2]; in assay [3]; at DNA topoisomerase 2-beta; in assay [4]; in assay [5]) was > 30 µM (inactive) throughout. For the same molecule, the Kd (in assay [6]; in [7]; on Activated CDC42 kinase 1) was > 30 µM (inactive) each time.
